Patent US5571822A, “Antitumor compounds” (The University of North Carolina at Chapel Hill, priority 1994, dated 1996)
“Also recorded” adds a separate entry of the source. Read-outs that look alike come from different tables or passages of the source.

Assays:
SK-Mel-5 = experiment: NCI in vitro tumor cell screen, SK-Mel-5 melanoma; format: cell-based; conditions: Homo sapiens
Description: (§1) Selected 2-phenyl-4-quinolones were assayed using an in vitro, disease-oriented antitumor screen run by the National Cancer Institute (NCI) (e.g., Boyd 1989). The screen involved approximately 60 different cell lines and is a useful indicator of in vivo antitumor activity for a broad variety of tumor types (Grever et al., 1992; Monks et al., 1991). The cell lines tested included cells derived from the following solid tumor types: leukemia, non-small cell lung, colon, the central nervous system (CNS), melanoma, ovarian, renal, prostate, and breast cancers.
(§2) melonoma; SF268 and SF295, CNS tumor cell lines; DU145, prostate cancer

tubulin [1] = experiment: inhibition of tubulin polymerization (ITP); format: biochemical, bovine
Description: Electrophoretically homogeneous bovine brain tubulin was purified as described previously (Hamel, et al., 1984). […] Dihydrocombretastatin A-4 was prepared as described previously (Getahun et al., 1992).
The tubulin polymerization assay was performed as described previously (Li et al., 1994). In brief, tubulin at 1.2 mg/mL ([…]) was preincubated for 15 min at 26° C. in a 0.24 mL volume in 0.8M monosodium glutamate (pH 6.6 with NaOH in a 2M stock solution) with varying drug concentrations. The drug stock solutions were in dimethyl sulfoxide, and the final solvent concentration was 4% (v/v). […] All concentrations are in terms of the final reaction volume (0.25 mL). The reaction mixtures were chilled on ice, and […] of 10 mM GTP was added to each reaction mixture. Samples were transferred to cuvettes held at 0° C. by an electronic temperature controller in Gilford spectrophotometers. Baselines were established at 350 nm, and polymerization initiated by a temperature jump to 26° C. The jump took about 50 sec to complete. After 20 min, turbidity readings were recorded, and the temperature controller was set to 0° C. When depolymerization was complete, turbidity readings were again recorded. […] IC50 values were obtained graphically from inhibition of polymerization by different drug concentrations. Four spectrophotometers were used for each experimental sequence, with at least two control reactions (no drug) in each set.

MDA-N = experiment: NCI in vitro tumor cell screen, MDA-N breast cancer; format: cell-based; conditions: Homo sapiens
Description: as §1

SF-295 = experiment: NCI in vitro tumor cell screen, SF-295 CNS tumor; format: cell-based; conditions: Homo sapiens, SF-295; read-out: logGI50 (converted)
Description: as §1, §2

HCT116 = experiment: NCI in vitro tumor cell screen, HCT116 colon cancer; format: cell-based; conditions: Homo sapiens, HCT-116
Description: as §1

[2] = system: approximately 60 different cell lines; experiment: NCI in vitro disease-oriented human tumor cell screen, all cell lines; format: cell-based; conditions: for GI50: Homo sapiens
Text: The cell lines tested included cells derived from the following solid tumor types: leukemia, non-small cell lung, colon, the central nervous system (CNS), melanoma, ovarian, renal, prostate, and breast cancers.

NCI-H226 = experiment: NCI in vitro tumor cell screen, NCI-H226 non-small cell lung cancer; format: cell-based; conditions: Homo sapiens
Description: as §1

RXF-393 = experiment: NCI in vitro tumor cell screen, RXF-393 renal cancer; format: cell-based; conditions: Homo sapiens
Description: as §1

K-562 = experiment: NCI in vitro tumor cell screen, K-562 leukemia; format: cell-based; conditions: Homo sapiens, K562
Description: as §1

DU-145 = experiment: NCI in vitro tumor cell screen, DU-145 prostate cancer; format: cell-based; conditions: Homo sapiens
Description: as §1, §2

OVCAR-4 = experiment: NCI in vitro tumor cell screen, OVCAR-4 ovarian cancer; format: cell-based; conditions: Homo sapiens
Description: as §1

SF-268 = experiment: NCI in vitro tumor cell screen, SF-268 CNS tumor; format: cell-based; conditions: Homo sapiens
Description: as §1, §2

KM202L = experiment: NCI in vitro tumor cell screen, KM20L2 colon cancer; format: cell-based; conditions: Homo sapiens, KM-20L2
Description: as §1

tubulin [3] = experiment: inhibition of radiolabeled colchicine binding to tubulin (ICB); set-up: species or system bovine; conditions: evaluated only when polymerization IC50 ≤ 1.0 μM; inhibitor equimolar with [3H]colchicine, 5-fold molar excess over tubulin
Description: Studies conducted in support of the present invention indicate that one mode of action of the 2-phenyl-4-quinolone compounds, as antitumor agents, is an ability to bind to tubulin and inhibit cell mitosis. […] […].
[…]. […] […].
Electrophoretically homogeneous bovine brain tubulin was purified as described previously (Hamel, et al., 1984). Combretastatin A-4 was a generous gift of Dr. G. R. Pettit, Arizona State University. Dihydrocombretastatin A-4 was prepared as described previously (Getahun et al., 1992). […]

OVCAR-3 = experiment: NCI in vitro tumor cell screen, OVCAR-3 ovarian cancer; format: cell-based; conditions: Homo sapiens
Description: as §1

protein-linked DNA = experiment: breaks in protein-linked DNA; conditions: compared with VP-16
[4] = values given in mM, read-out: IC50, inhibition of tubulin polymerization
[5] = ± SD, tubulin 1.2 mg/mL, 26° C., 20 min, read-out: ITP IC50 (inhibition of tubulin polymerization)
[6] = calculated from all cell lines tested (Table II), read-out: average logGI50 (converted)
[7] = SF-268, CNS tumor, read-out: logGI50 (converted)
[8] = average over cell lines, read-out: average log GI50 (converted)

| SMILES | IC50 (tubulin [1]; [5]) [mM] | ICB (% inhibition of colchicine binding) (tubulin [3]) [%] | GI50 (SK-Mel-5) [nM] | GI50 (MDA-N) [nM] | GI50 (SF-295) [nM] | GI50 (HCT116) [nM] | GI50 [2, 6] [nM] | GI50 (NCI-H226) [nM] | GI50 (RXF-393) [nM] | GI50 (K-562) [nM] | GI50 (DU-145) [nM] | GI50 (OVCAR-4) [nM] | GI50 (SF-268; [7]) [nM] | GI50 (KM202L) [nM] | GI50 (OVCAR-3) [nM] | breaks in protein-linked DNA (protein-linked DNA) | antitumor activity / cytotoxicity, in words [2] | GI50 [2, 8] [nM] | other results |
| --- | --- | --- | --- | --- | --- | --- | --- | --- | --- | --- | --- | --- | --- | --- | --- | --- | --- | --- | --- |
| O=c1cc(-c2cccc(OC(F)(F)F)c2)[nH]c2cc3c(cc12)OCO3 [compound 17, 3'-Trifluoromethoxy-6,7-methylenedioxy-2-phenyl-4-quinolone] | 0.0005 ± 0.0001 | 40 ± 5 | 170 | < 10 | 25.7 | 14.1 | 417 | 195 | 40.7 | 36.3 | 45.7 | 25.7 | – | 36.3 | 63.1 | – | – | – | – |
| COc1cccc(-c2cc(O)c3cc(NC(C)=O)ccc3n2)c1 [compound 27, 3'-Methoxy-6-acetamido-2-phenyl-4-quinolone] | 0.0021 ± 0.0005 | – | – | – | – | – | 20000 | – | – | – | – | – | – | – | – | no detectable breaks in protein-linked DNA | – | – | GI50 (SF-268; SF-268, read-out: logGI50 (converted)): 5500 nM |
| O=c1cc(-c2cccc(OCc3ccccc3)c2)[nH]c2cc3c(cc12)OCO3 [compound 19, 3'-Benzyloxy-6,7-methylenedioxy-2-phenyl-4-quinolone] | 0.00045 ± 3e-05 | 26 ± 5 | 282 | 145 | 447 | 389 | 676 | 229 | 407 | 363 | 1100 | > 100000 | 12900 | 224 | 245 | – | – | – | – |
| COc1cccc(-c2cc(O)c3cc(N(C)C)ccc3n2)c1 [compound 23, 3'-Methoxy-6-N,N-dimethylamino-2-phenyl-4-quinolone] | 0.00038 ± 0.0001 | 14 ± 8 | 25.7 | 1.7 | 15.5 | – | 30.2 | 44.7 | 18.6 | 8.91 | 34.7 | 5500 | 43.7 | 4.57 | 15.1 | – | in every case lower than those observed for compounds 10-22, 25-27, and 32 | 31.6 | IC50 (tubulin [1]; [4]): 0.00038 mM; difference in average log GI50 versus compounds 10-22, 25-27, and 32 [2]: at least 0.9 log units |
| COc1cccc(-c2cc(O)c3cc(Cl)ccc3n2)c1 [compound 24, 3'-Methoxy-6-chloro-2-phenyl-4-quinolone] | 0.0007 ± 0.0002 | 16 ± 5 | – | – | – | – | – | – | – | – | – | – | – | – | – | no detectable breaks in protein-linked DNA | – | – | – |
| CCOc1cccc(-c2cc(=O)c3cc4c(cc3[nH]2)OCO4)c1 [compound 18, 3'-Ethoxy-6,7-methylenedioxy-2-phenyl-4-quinolone] | 0.00047 ± 0.0001 | 40 ± 2 | 191 | 17.8 | 64.6 | 174 | 224 | 324 | 275 | 44.7 | 251 | – | 269 | 182 | 166 | – | – | 224 | – |
| COc1cccc(-c2cc(O)c3cc(N4CCCC4)ccc3n2)c1 [compound 28, 3'-Methoxy-6-pyrrolinyl-2-phenyl-4-quinolone] | – | – | < 1 | < 1 | < 1 | < 1 | 1.86 | < 1 | < 1 | < 1 | < 1 | 2000 | < 1 | < 1 | < 1 | – | most potent activity of all; also recorded: exceeded the sensitivity of the testing protocol for many of the cell lines tested | ≤ 1.86 | – |

Continued, in another order:

| IC50 (tubulin [1]; [5]) [mM] | ICB (% inhibition of colchicine binding) (tubulin [3]) [%] | SMILES | GI50 (SK-Mel-5) [nM] | GI50 (MDA-N) [nM] | GI50 (SF-295) [nM] | GI50 (HCT116) [nM] | GI50 [2, 6] [nM] | GI50 (NCI-H226) [nM] | GI50 (RXF-393) [nM] | GI50 (K-562) [nM] | GI50 (DU-145) [nM] | GI50 (OVCAR-4) [nM] | GI50 (SF-268; [7]) [nM] | GI50 (KM202L) [nM] | GI50 (OVCAR-3) [nM] | breaks in protein-linked DNA (protein-linked DNA) | antitumor activity / cytotoxicity, in words [2] | GI50 [2, 8] [nM] | other results |
| --- | --- | --- | --- | --- | --- | --- | --- | --- | --- | --- | --- | --- | --- | --- | --- | --- | --- | --- | --- |
| 0.014 ± 0.002 | – | COc1cccc(-c2cc(=O)c3cc(N4CCN(C)CC4)ccc3[nH]2)c1 [compound 32, 3'-Methoxy-6-methylpiperazinyl-2-phenyl-4-quinolone] | 912 | 200 | 1820 | 437 | 1550 | 1510 | 457 | 537 | 2510 | > 10000 | 1860 | 1510 | – | – | – | – | IC50 (tubulin [1]; [4]): 0.014 mM |
| 0.0023 ± 0.0007 | – | CC(=O)Nc1ccc2nc(-c3cccc(Cl)c3)cc(O)c2c1 [compound 26, 3'-Chloro-6-acetamido-2-phenyl-4-quinolone] | – | – | – | – | 10500 | – | – | – | – | > 100000 | – | – | – | no detectable breaks in protein-linked DNA | – | – | – |
| 0.00036 ± 0.0001 | 43 ± 10 | COc1cccc(-c2cc(O)c3cc(N4CCOCC4)ccc3n2)c1 [compound 31, 3'-Methoxy-6-morpholinyl-2-phenyl-4-quinolone] | 35.5 | 8.32 | 49 | 26.9 | 56.2 | 33.9 | – | 24.5 | 43.7 | 6310 | 53.7 | 33.9 | 20 | – | highly potent, with an antitumor activity comparable to that of compound 23 | – | – |
